Test results published in PubChem BioAssay AID1845201 (Molecular Pharmacology Branch, DTP, NCI, 2023).
pIC50: −log10 of the molar value.

System: COR L88 complex tumor spheroid viability
Test: Anticancer human tumor COR L88 cell line growth inhibition;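 also: compound exposure lasted 7 days before viability readout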;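 as to viability, T/C: percent of DMSO vehicle-treated spheroids = 100%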
Conditions: for pIC50: curve of first compound; for viability, T/C: stronger effect = lower value
Excerpt: Multicellular complex tumor spheroid response to DNA repair inhibitors in combination with DNA-damaging drugs
This study explores the anticancer activities of DNA-damaging drugs and inhibitors of DNA damage repair, both as single agents and in combinations. Complex tumor spheroids comprised of malignant cells, endothelial cells and mesenchymal stem cells served as an in vitro model for human solid tumors. This model system incorporates physiologically relevant features and patient-derived or established malignant cell lines with clinically relevant genetic alterations from many tumor types. Twenty-six patient-derived or established malignant cell lines were evaluated representing sarcoma, melanoma, small cell lung cancer (SCLC), non-small cell lung cancer (NSCLC), as well as bladder, ovarian and pancreatic cancers. The concentration ranges selected for each drug and investigational agent were based upon clinically achievable concentrations if the clinical Cmax of the agent was known.
Compounds. The drugs and compounds olaparib (NSC753686), talazoparib (NSC767125), berzosertib (NSC777718), elimusertib (NSC800525), nedisertib (NSC802822), VX-984 (NSC792969), AZD-1390 (NSC803789), temozolomide (NSC362856), topotecan (NSC609699), trabectedin (NSC813783), staurosporine (NSC755774), and gemcitabine (NSC613327) were obtained from the National Cancer Institute (NCI) Developmental Therapeutics Program Chemical Repository. The FDA-approved anticancer drug set is available from the Developmental Therapeutics Program at https://dtp.cancer.gov/organization/dscb/obtaining/available_plates.htm. […] The stock solutions were prepared in dimethyl sulfoxide (DMSO, Sigma-Aldrich, St. Louis, MO, cat. D2650) at 400-fold the tested concentration and stored at -70 degrees C. Prior to their use, the stock solutions were diluted in fresh medium and the final DMSO concentration in the assay was 0.25% (v/v). All drugs and investigational agents were tested over a range starting from a high concentration at or near the clinical Cmax and decreasing in half-log increments. If the clinical Cmax for an agent had not been determined, the highest concentration tested was 10 microM.
Cell Lines. The patient-derived cancer cell (PDC) lines: 156681-154-R-J1-PDC, 283228-195-R-J1-PDC, 287954-098-R-J1-PDC, 292921-168-R-J2-PDC, 349418-098-R-PDC, 425362-245-T-J1-PDC, 556581-035-R-J1-PDC, and BL0293-F563-PDC were received from the NCI Patient-Derived Models Repository (PDMR, https://pdmr.cancer.gov). The established cell lines HS-SY-2 (RRID:CVCL_8719), MPNST, and SYO-1 (RRID:CVCL_7146) were obtained from the Sloan Kettering Institute. The alveolar soft parts sarcoma cell line ASPS-1 (RRID:CVCL_S738) was established at the NCI and grown from internal seed stocks. The following established cell lines were purchased from the American Type Culture Collection (ATCC, Manassas, VA): G-401 (ATCC, cat. CRL-1441, RRID:CVCL_0270), SW982 (ATCC, cat. HTB-93, RRID:CVCL_1734), VA-ES-BJ (ATCC, cat. CRL-2138, RRID:CVCL_1785), NCI-H719 (ATCC, cat. CRL-5837, RRID:CVCL_1582), NCI-H196 (ATCC, cat. CRL-5823, RRID:CVCL_1509), NCI-H841 (ATCC, cat. CRL-5845, RRID:CVCL_1595), NCI-H1618 (ATCC, cat. CRL-5879, RRID:CVCL_1480), NCI-H1876 (ATCC, cat. CRL-5902, RRID:CVCL_1503), DMS 114 (ATCC, cat. CRL-2066; RRID:CVCL_1174), NCI-H211 (ATCC, cat. CRL-5824; RRID:CVCL_1529), and SW 1271 (ATCC, cat. CRL-2177, RRID:CVCL_1716). The small cell lung cancer cell line COR-L88 was purchased from Sigma-Aldrich (cat. 92031917-1VL, RRID:CVCL_1141). The non-small cell lung cancer cell lines NCI-H226 (RRID:CVCL_1544) and NCI-H322M (RRID:CVCL_1557) were established at the NCI and grown from internal seed stocks. Pooled donor human umbilical vein endothelial cells (HUVEC, Lonza, cat. CC-2519) and human mesenchymal stem cells (hMSC, Lonza, cat. PT-2501) were purchased from Lonza (Walkersville, MD).
Cell Culture. All cells were maintained in an incubator at 37 degrees C and 5% CO2 with 95% humidity. […]

With Cc1cc(C)c(CNC(=O)c2cc(-c3ccc(CN4CCOCC4)cc3)cc3c2cnn3C2CCCC2)c(=O)[nH]1 + CC[C@@]1(O)C(=O)OCc2c1cc1n(c2=O)Cc2cc3c(CN(C)C)c(O)ccc3nc2-1 the pIC50 (second compound 0.003 µM) was 5.08, the pIC50 (second compound 0.00949 µM) was less than 5.00 and the pIC50 (second compound 0.03 µM) was 6.60. The pIC50 (second compound 0.0949 µM) was 7.36, the pIC50 (second compound 0.3 µM) was greater than 7.50 and the viability, T/C (second compound 0.003 µM, first compound 0.0316 µM) was 87%. The viability, T/C (second compound 0.003 µM, first compound 0.1 µM) was 91.7%, the viability, T/C (second compound 0.003 µM, first compound 0.316 µM) was 90.4% and the viability, T/C (second compound 0.003 µM, first compound 1 µM) was 80.8%. The viability, T/C (second compound 0.003 µM, first compound 3.16 µM) was 73.1%, the viability, T/C (second compound 0.003 µM, first compound 10 µM) was 45.5% and the viability, T/C (second compound 0.00949 µM, first compound 0.0316 µM) was 76.9%. The viability, T/C (second compound 0.00949 µM, first compound 0.1 µM) was 81.5%, the viability, T/C (second compound 0.00949 µM, first compound 0.316 µM) was 83.8% and the viability, T/C (second compound 0.00949 µM, first compound 1 µM) was 73%. It also gave a viability, T/C (second compound 0.00949 µM, first compound 3.16 µM) of 60.3%, a viability, T/C (second compound 0.00949 µM, first compound 10 µM) of 54.4% and a viability, T/C (second compound 0.03 µM, first compound 0.0316 µM) of 52.4%. For the same compound, the viability, T/C (second compound 0.03 µM, first compound 0.1 µM) was 56.2%, the viability, T/C (second compound 0.03 µM, first compound 0.316 µM) was 47.1% and the viability, T/C (second compound 0.03 µM, first compound 1 µM) was 46.3%. It also gave a viability, T/C (second compound 0.03 µM, first compound 3.16 µM) of 43%, a viability, T/C (second compound 0.03 µM, first compound 10 µM) of 39.2% and a viability, T/C (second compound 0.0949 µM, first compound 0.0316 µM) of 51.7%. It also gave a viability, T/C (second compound 0.0949 µM, first compound 0.1 µM) of 48.2%, a viability, T/C (second compound 0.0949 µM, first compound 0.316 µM) of 45.1% and a viability, T/C (second compound 0.0949 µM, first compound 1 µM) of 45.9%. It also gave a viability, T/C (second compound 0.0949 µM, first compound 3.16 µM) of 40.5%, a viability, T/C (second compound 0.0949 µM, first compound 10 µM) of 41.7% and a viability, T/C (second compound 0.3 µM, first compound 0.0316 µM) of 40.5%. For the same compound, the viability, T/C (second compound 0.3 µM, first compound 0.1 µM) was 38.4%, the viability, T/C (second compound 0.3 µM, first compound 0.316 µM) was 39% and the viability, T/C (second compound 0.3 µM, first compound 1 µM) was 38.1%. For the same compound, the viability, T/C (second compound 0.3 µM, first compound 3.16 µM) was 35.8% and the viability, T/C (second compound 0.3 µM, first compound 10 µM) was 30.4%.
